Broadly, the melting point is the temperature, or range, at which the solid turns liquid. `O=C(O)CC1=C(n2nc(-c3c(-c4ccccc4)nn4ccccc34)ccc2=O)CCCCC1` gave a melting point of 171 to 172 °C.
The value for `Cc1cc2cc(OCCCCBr)ccc2[nH]1` was 77 to 79 °C; that for `CCCCOC(=O)NCc1cccc(C(=O)C=CN(C)C)c1` was 80 to 82 °C.
The value for `N=C(N)Nc1ncc(CO)s1` was 168 to 170 °C; that for `CCOC(=O)C1=C(N)NC2=C(C(=O)CCC2)C1c1ccccc1-c1ccccc1` (stereo unspecified) was 248 °C.
In the case of `OCc1cncc(-c2ccccc2)c1` it was 71 to 72 °C; in that of `Cc1cc(O)nc2cc(Br)ccc12`, 275 to 276 °C; in that of `O=C(CCCN1CCC(c2ccc(Cl)cc2)CC1)c1ccc2c(c1)CCN(Cc1ccccc1)CC2`, 99 to 100 °C.
As for `N#CN1C2CCC1CC(c1n[nH]c3ccccc13)C2` (stereo unspecified), the melting point fell in the range of 201 to 202 °C.
The value for `COc1ccc(C2=C(c3ccc(S(C)(=O)=O)cc3)CCC2)cc1` was 129 to 130 °C.
The value for `Cc1nn(C(=O)NC(C)(C)C)c(=O)n1N` was 132 °C; that for `Cn1c(=O)[nH]c(N2CCc3ccccc3CC2)c(C#N)c1=O` was above 200 °C.
The value for `CCCc1c([C@@H]2C[C@H]2c2ccccc2)oc2ccc(C(=O)OC)cc2c1=O` (relative stereo) was 171 to 173 °C.
`Fc1ccc(-c2cnn(CCC#Cc3ccccn3)n2)cc1` displayed a melting point of 83.5 to 84.5 °C.
In the case of `C=CCSC(C(=O)NC(C)=O)C(c1ccccc1)(c1ccccc1)c1ccccc1` (stereo unspecified) it was 193 to 194 °C; in that of `NS(=O)(=O)C1(c2cnn(CC(F)=C(F)F)c(=O)c2-c2ccc(F)cc2)C=CC=CC1` (stereo unspecified), 173 to 175 °C; in that of `CC(=O)NCC1=CC(c2ccccc2)Cc2c1ccc(O)c2O` (stereo unspecified), 238 °C.
The value for `C[C@@H]1N=C(c2ccccc2)c2cc(C#CCCCC(=O)NO)ccc2N(C)C1=O` was 101 to 103 °C; that for `COc1cccc2c1CCCC2=NNc1nc(-c2ccc(F)cc2)cs1` was 198 °C; that for `CCOC(=O)c1cnc2nn(C)cc2c1NC(C)C` was 168 to 170 °C.
The value for `CN1C(=O)CCC1(O)c1ccc(Cl)c(S(=O)(=O)NCc2ccccc2Cl)c1` (stereo unspecified) was 144 to 145 °C.
Take `COc1ccc(C2Cc3ccccc3C2=O)cc1` (stereo unspecified): the melting point lay in the range of 83 to 85 °C.
In the case of `NC(=O)C1=C(C(=O)Nc2ccc(Cl)cc2F)CCCC1` it was 150 to 151 °C; in that of `Cc1cc(-c2c(-c3ccc(S(N)(=O)=O)cc3)cnn(-c3ccc(F)cc3)c2=O)ccc1F`, 202 to 204 °C.
The value for `CN(C)Cc1ccc(COCC(N)=O)s1` was 86.5 to 95 °C; that for `CCn1c(C#N)ccc1-c1ccc2c(c1)C(C)(C)OC(=S)N2` was 212 to 213 °C; that for `COC(=O)C1=C(NC(=O)NC2CCCCC2)CSC1` was 154 to 155 °C.
In the case of `CCC(CC)Oc1nc(C)nc(Oc2c(C)cc(C)cc2C)c1C` it was 93.5 to 95.5 °C; in that of `COC(=O)C1C(=O)N(Cc2ccc(Br)cc2F)C(=O)c2ccccc21` (stereo unspecified), 149 to 150 °C; in that of `O=C(O)c1ccc(/C=C/c2ccc(O)c(C34CC5CC(CC(C5)C3)C4)c2)cc1`, 279 to 280 °C.
With `Cc1ccn(-c2cncc(F)c2)n1`, the melting point is 70 to 72 °C.
The value for `CS(=O)(=O)N1CCSc2ccccc2C1` was 98 to 100 °C; that for `CC(C)OC(=O)c1cc(-c2nn(C)c(C(F)(F)F)c2CF)c(F)cc1Cl` was 74 °C.
Molecule `Cn1nc(Cl)c(Cl)cc1=O` registered a melting point of 97 °C.
`COc1cc(C)c(C)cc1NC(=O)N1CCN(c2ccccc2)CC1` registered a melting point of 143 to 144 °C.
In the case of `CCOc1cc(O)cc2c1C(=O)N(COC(=O)c1c(Cl)cccc1Cl)S2(=O)=O` it was 216 to 217 °C; in that of `COc1ncccc1C(=O)NCCc1ccncc1`, 84 to 87 °C.
As to `CN1C(=O)CC[C@]2(C)c3ccc(-c4ccc(Oc5ccccc5)cc4)cc3CC[C@@H]12`, the melting point lay in the range of 148 to 150 °C.
In the case of `c1ccc(C(OC2CCN(CCCCCNc3ccc4ncnn4n3)CC2)c2ccccc2)cc1` it was 96 to 98 °C; in that of `CNC(=O)C(CC(O)CO)N(CCN(CCN(CCN(CC(=O)O)C(CC(O)CO)C(=O)NC)CC(=O)O)CC(=O)O)CC(=O)O` (stereo unspecified), 86 to 92 °C; in that of `CCCCOc1c2c(nc3c1cnn3CC)C(O)c1ccccc1CC2` (stereo unspecified), 163 to 165 °C.
The value for `COc1ccc(C2CSc3ccccc3N(CCCl)C2=O)cc1` (stereo unspecified) was 70 °C.
In the case of `O=C(Nc1ccc(OS(=O)(=O)c2cccc(C(F)(F)F)c2)cc1[N+](=O)[O-])NS(=O)(=O)Cl` it was 152 °C; in that of `O=C1c2ccccc2C(=O)N1CCCCn1ccnc1`, 75 to 77 °C; in that of `CCOc1ccc2[nH]c(=O)n(CCN3CCOCC3)c2c1`, 107 °C.
For the molecule `COc1ccc(C(=Cc2cc(OC)c(OC)cc2[N+](=O)[O-])C(=O)N2CCCC2C(=O)O)cc1` (stereo unspecified), the melting point lay in the range of 120 to 122 °C.
The value for `Clc1cccc(Nc2ncnc3[nH]nc(NCc4cccnc4)c23)c1` was 204 to 206 °C; that for `COc1ccc(N(C)C(=O)CN(C(=O)CNC(=O)Nc2cccc(C)c2)c2ccccc2)cc1` was 202 °C.
The value for `CCNc1ncccc1-c1sccc1-c1cccnc1F` was 86 to 89 °C.
For `CC(=O)SCC(C)C(=O)N(CC(=O)O)Cc1ccco1` (stereo unspecified), the melting point lay within 140 to 141 °C.
In the case of `CCn1c2ccccc2c2cc(C(C#N)=C(C#N)c3cc(C(F)(F)F)cc(C(F)(F)F)c3)ccc21` it was 180 to 182 °C; in that of `COCCOc1ccc(CCCOc2cc(CCC(=O)O)n(C)n2)c(Oc2ncc(C(F)(F)F)cc2Cl)c1`, 114 to 115 °C.
In the case of `COc1cc2ccc(C(=O)CBr)cc2cc1OC` it was 120 to 122 °C.
In the case of `CCCSc1ccc([N+](=O)[O-])c(NC(=S)NC(=O)OC)c1` it was 122 to 125 °C.
With `CC(C)[Si](C)(C)CCSCCNC(=O)n1cc(F)c(=O)[nH]c1=O`, the melting point was in the range of 85 to 86 °C.
The value for `NS(=O)(=O)c1ccc(-n2nc(CO)cc2-c2ccc(Cl)cc2)cc1` was 192 to 194 °C; that for `CCCc1nc2c(N)nc3cc(OCCc4ccc(F)cc4)ccc3c2s1` was 145 to 148 °C.
Take `Cc1c2c(c(C)c3c1NC(C)(C)C3)OC(C)(CN1CCC(N(C)c3nc4ccccc4s3)CC1)C2` (stereo unspecified): the melting point was 147 to 150 °C.
The value for `COC(CN(C)C(=O)Nc1nnc(C(C)Oc2cc(Cl)cc(Cl)c2)s1)OC` (stereo unspecified) was 149 to 152 °C.
`COC(=O)NC=Cc1ccc(OCC2CO2)c(OC)c1` (stereo unspecified): the melting point fell in the range of 122 to 123 °C.
The value for `CC(=O)NC[C@H]1CN(c2ccc(-c3ncns3)c(F)c2)C(=O)O1` was 199 to 200 °C; that for `COc1cc(COc2cc(NC(C)=O)c(Cl)cc2C(=O)CCCCCl)cc(OC)c1` was 135 to 137 °C; that for `COc1cccc(N(CC(=O)OC(C)(C)C)C(=O)CN2C(=O)c3ccccc3C2=O)c1` was 148 °C.
`COc1cc(Nc2nccc(NS(=O)(=O)c3ccccc3)n2)cc(OC)c1OC` returned a melting point of 164 °C.
In the case of `CC(C)CC(N=O)C(=O)NC(CC(C)C)C(=O)O` (stereo unspecified) it was 134 to 139 °C.
Molecule `CCCc1cn(CCO)nc1OCc1ccc2ccccc2n1` showed a melting point of 61 to 62 °C.
Molecule `CCC(=O)c1cc2c(c(Cl)c1O)OC(C(=O)O)C2` (stereo unspecified) registered a melting point of 227 to 229 °C.
In the case of `CC(C)N1C(=O)c2ccc(Cl)nc2C1=O` it was 122 to 123 °C; in that of `Cc1nc(Nc2c([N+](=O)[O-])cc([N+](=O)[O-])cc2C(F)(F)F)c(Cl)c(C)c1Cl`, 131 to 133 °C; in that of `CC(C#N)=NC(C#N)=C(N)C#N`, 220 to 221 °C.
For `O=C(O)c1ccc2c(c1)CCC(CO)O2` (stereo unspecified), the melting point was found to be 150 °C.
In turn, `c1ccc2sc3cc4oc5ccccc5sc4cc3oc2c1` came in with a melting point of 223 °C.
In the case of `CC(C)NC(=O)C1CC(=O)N(Cc2ccccc2)C1` (stereo unspecified) it was 122 to 124 °C; in that of `COc1ccc(-c2cc(N(Cc3ccc(OCc4ccccc4)cc3)n3cnnc3)ccc2C#N)cc1`, 219 to 221 °C.
In the case of `COCCOC(=O)Nc1cccc(C)c1COc1cccn2c(C)c(C)nc12` it was 107 to 108 °C; in that of `COCC(=O)N(c1c(C)cccc1C)C(CCO)C(=O)O` (stereo unspecified), 150 to 152 °C.
In the case of `c1ccc(COc2ccc(CCCn3ccnc3)cc2)cc1` it was 80 to 81 °C; in that of `N#Cc1c(N2CCN(C(=O)c3cccs3)CC2)c2ccsc2n(Cc2ccccc2)c1=O`, 257 °C.
In the case of `COc1cc2nc(S(=O)Cc3nccc(N4CCOCC4)c3F)[nH]c2cc1OC` (stereo unspecified), the melting point is 213 to 215 °C.
The value for `O=S(=O)(Nc1cccc(CCOCc2ccc(-c3cccc(Cl)c3)cc2)c1)C(F)(F)F` was 105 to 107 °C.
The value for `COC12CC(c3nnc(-c4cncc(Br)c4)o3)CN(C)C1Cc1c[nH]c3cccc2c13` (stereo unspecified) was 155 to 157 °C.
In the case of `CC12CCC3c4ccc(Cl)cc4CCC3C1CCC2NCc1cccc(C(F)(F)F)c1` (stereo unspecified) it was 97 to 101 °C.
In turn, `CCCCC[C@H]1CC[C@H](CCC2CCC(c3ccc(Oc4ccc(N)cc4)cc3)(c3ccc(Oc4ccc(N)cc4)cc3)CC2)CC1` had a melting point of 171 to 172 °C.
In the case of `NC(=O)NCCCCC1CCSS1` (stereo unspecified) it was 110 to 113 °C; in that of `COc1ccc(-c2coc3ccc(-c4nnc(SC)o4)cc23)cc1`, 156 to 157 °C.
In the case of `COC(=O)c1nc2cc(Cl)c(Cl)c(Cl)c2c(O)c1C(=O)OC` it was 227 to 228 °C; in that of `CC(C)CC[C@H](O)[C@H](CC1CCCCC1)NC(=O)[C@@H](N)Cc1c[nH]cn1`, 126 to 130 °C; in that of `Cc1c(Cl)cnc(N)c1F`, 136 to 138 °C.
In the case of `Cc1cc(C)c(-c2nc(C)cc3c2ncn3Cc2ccccc2)c(C)c1` it was 177 to 180 °C; in that of `O=C(NC(=S)N1CCC(=O)C(C(c2ccccc2)c2ccccc2)C1)c1ccccc1` (stereo unspecified), 168 to 169 °C.
In turn, `N#CCC(=O)c1cc(F)c(Cl)cc1Cl` returned a melting point of 98 to 99 °C.
